Earlier results, collected in patent US20080075681A1, “Method and composition for permanently shaping hair” (priority 2006, published 2008).

Details: compared to N-methylmercaptoacetamide and N-hydroxyethylmercaptoacetamide; EP 0969791 B1

SMILES: O=C(CS)NCCCO [N-(3′-hydroxypropyl)-2-mercapto-acetamide]
- sensitization rates: substantially lower
